# Reference: BindingDB's records for doi:10.1016/0006-2952(81)90220-3 (Royal Postgraduate Medical School, 1981)
# Where “and” joins values, the source holds several entries; their conditions need not be identical. Identical values can stand only once.
# Target: Prostacyclin receptor (Mus musculus, UniProt P43252)
# Sequence (P43252 whole entry): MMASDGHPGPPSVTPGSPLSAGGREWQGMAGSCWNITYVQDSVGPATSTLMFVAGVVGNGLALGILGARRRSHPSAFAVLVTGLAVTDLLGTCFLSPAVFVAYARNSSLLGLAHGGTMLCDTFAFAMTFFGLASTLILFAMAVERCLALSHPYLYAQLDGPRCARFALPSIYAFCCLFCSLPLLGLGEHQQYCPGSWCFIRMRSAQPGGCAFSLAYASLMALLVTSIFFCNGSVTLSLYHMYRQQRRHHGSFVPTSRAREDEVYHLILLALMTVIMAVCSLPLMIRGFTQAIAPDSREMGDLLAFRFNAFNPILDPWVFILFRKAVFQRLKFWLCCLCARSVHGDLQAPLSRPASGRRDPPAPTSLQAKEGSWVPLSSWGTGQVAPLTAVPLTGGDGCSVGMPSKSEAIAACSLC
row,Ki,Structure (SMILES)
1,> 10 µM,CCCCC[C@@H](O)/C=C/[C@H]1[C@H](O)CC(=O)[C@@H]1C/C=C\CCCC(=O)O
2,0.137 µM,CCCCC[C@@H](O)/C=C/[C@H]1[C@H](O)CC(=O)[C@@H]1CCCCCCC(=O)O
3,0.0166 µM,CCCCC[C@H](O)/C=C/[C@@H]1[C@H]2C/C(=C\CCCC(=O)O)C[C@H]2C[C@H]1O
4,> 10 µM,"CCCCC[C@H](O)/C=C/[C@@H]1[C@@H](CC(=O)CCC(=O)O)[C@@H](O)C[C@H]1O [2,3-dinor-6-ketoprostaglandin F1alpha]"
5,0.735 µM,CCCCC[C@H](O)/C=C/C1[C@H](O)CC(=O)[C@H]1CCCCCCC(=O)O (stereo partly drawn) [8-ISO PROSTAGLANDIN E1]
6,8.41 µM and > 10 µM,"CCCCCC(=O)CC[C@H]1[C@H](O)CC(=O)[C@@H]1C/C=C\CCCC(=O)O [13,14-DIHYDRO-15-KETO PROSTAGLANDIN E2]"
7,4.37 µM,O=C(O)CCC/C=C\C[C@H]1C(=O)C[C@@H](O)[C@@H]1/C=C/[C@@H](O)CCc1ccccc1 [17-PHENYL TRINOR PROSTAGLANDIN E2]
8,0.735 µM,"CCCCC[C@H](O)/C=C/[C@H]1[C@H](O)CC(=O)[C@@H]1C/C=C/CCCC(=O)O [(E)-7-((1R,2R,3R)-3-hydroxy-2-((S,E)-3-hydroxyoct-1-enyl)-5-oxocyclopentyl)hept-5-enoic acid]"
9,> 10 µM,"CCCCC[C@H](O)/C=C/C1[C@H](O)C[C@H](O)[C@@H]1C/C=C\CCCC(=O)O (stereo partly drawn) [(Z)-7-[(1R,3R,5S)-3,5-Dihydroxy-2-((E)-(S)-3-hydroxy-oct-1-enyl)-cyclopentyl]-hept-5-enoic acid]"
10,0.315 µM,CCCCC[C@H](O)CC[C@H]1[C@H](O)CC(=O)[C@@H]1CCCCCCC(=O)O [CAS_19313-28-1]
11,7.35 µM,CCCCCC(O)C=CC1C(O)CC2OC(CCCCC(=O)O)CC21 (stereo not drawn) [CAS_162981]
12,> 10 µM,CCCCC[C@H](O)/C=C/[C@H]1[C@H](O)CC(=O)[C@@H]1C/C=C\CCCC(=O)O [DINOPROSTONE]
13,> 10 µM,CCCCCC(O)C=CC1C(O)CC(O)C1CCCCCCC(=O)O (stereo not drawn) [NSC_5280939]
